Measured values from ChEMBL document CHEMBL1201862, “PubChem BioAssay data set” (2004).
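Method: 48-hour compound exposure of cells in 96-well plates, five concentrations, linear interpolation of endpoints. Here, GI50 denotes the concentration required for 50% inhibition of growth.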 Calls of active or inactive are those of the source. No stated cut-off is given here; in the data, active = GI50 up to about 1.1 µM and inactive = higher.

Legend:
Assay in all cases: growth of human tumour cells (NCI), 48 h
HL-60 = test system: HL-60
RXF 393 = test system: RXF 393
OVCAR-3 = test system: OVCAR-3
OVCAR-8 = test system: OVCAR-8
NCI-H226 = test system: NCI-H226
HT-29 = test system: HT-29
KM12 = test system: KM12
SK-MEL-5 = test system: SK-MEL-5
DMS-273 = test system: DMS-273
A549 = test system: A549
SF-295 = test system: SF-295
Malme-3M = test system: Malme-3M
HOP-92 = test system: HOP-92
CAKI-1 = test system: CAKI-1
TK-10 = test system: TK-10
DMS-114 = test system: DMS-114
HCC 2998 = test system: HCC 2998

Measured: GI50

OCC1CC2C=CCC(C2)C1 (stereo not drawn)
inactive: HL-60 > 100 µM | RXF 393 > 100 µM | OVCAR-3 > 100 µM | OVCAR-8 > 100 µM | NCI-H226 > 100 µM | HT-29 > 100 µM | KM12 > 100 µM | SK-MEL-5 > 100 µM | DMS-273 > 100 µM | A549 > 100 µM | SF-295 > 100 µM | Malme-3M > 100 µM | HOP-92 > 100 µM | CAKI-1 > 100 µM | TK-10 > 100 µM | DMS-114 > 100 µM

NCC(=O)OCN1C(=O)C2C3C=CC(C2C1=O)C1C2C(=O)N(COC(=O)CN)C(=O)C2C31 (stereo not drawn)
inactive: HL-60 12.4 µM | RXF 393 20.6 µM | OVCAR-3 35.7 µM | OVCAR-8 20.7 µM | NCI-H226 50.5 µM | HT-29 40.6 µM | KM12 22.2 µM | SK-MEL-5 25.5 µM | DMS-273 18.2 µM | A549 30.1 µM | SF-295 > 100 µM | HOP-92 94 µM | CAKI-1 53.5 µM | TK-10 31.3 µM | DMS-114 20.9 µM

Cc1ccc(NC(=O)C(=O)C(C#N)c2nc(-c3ccc(-c4ccccc4)cc3)cs2)c(C)c1 (stereo not drawn)
inactive: RXF 393 > 100 µM | OVCAR-3 > 100 µM | OVCAR-8 > 100 µM | NCI-H226 > 100 µM | SK-MEL-5 > 100 µM | DMS-273 39.6 µM | A549 > 100 µM | SF-295 > 100 µM | Malme-3M > 100 µM | HCC 2998 > 100 µM | CAKI-1 > 100 µM | TK-10 > 100 µM | DMS-114 > 100 µM

Cc1cc2c(cc1CO)N1Cc3cc(C)c(CO)cc3N(C2)C1
inactive: HL-60 > 100 µM | RXF 393 > 100 µM | OVCAR-3 > 100 µM | OVCAR-8 > 100 µM | NCI-H226 > 100 µM | HT-29 > 100 µM | KM12 > 100 µM | SK-MEL-5 > 100 µM | DMS-273 > 100 µM | A549 > 100 µM | SF-295 > 100 µM | HCC 2998 > 100 µM | TK-10 > 100 µM | DMS-114 > 100 µM

NC(CCC(=O)Nc1ccc(O)cc1)C(=O)O (stereo not drawn)
inactive: HL-60 > 100 µM | RXF 393 > 100 µM | OVCAR-3 > 100 µM | OVCAR-8 > 100 µM | NCI-H226 > 100 µM | HT-29 > 100 µM | KM12 > 100 µM | SK-MEL-5 > 100 µM | DMS-273 > 100 µM | A549 > 100 µM | Malme-3M > 100 µM | HOP-92 > 100 µM | CAKI-1 > 100 µM | TK-10 > 100 µM | DMS-114 > 100 µM
